Experimental data taken from US20100099773A1, “INCLUSION COMPLEX OF S[…] BETA-CYCLODEXTRIN” (priority 2006, published 2010).

How the values were obtained:
Assay type in all cases: physicochemical
[1] = Photo-stability after UV-irradiation, impurities by HPLC; details: for Content of impurities, UV: after UV-irradiation for 120 hours (total radiation dosage: 200 watt); for Content of impurities, Initial: before UV-irradiation
Method: Sibutramine free base, sibutramine hydrochloride monohydrate and sibutramine inclusion complex (Examples 1 and 2) were compared in terms of photo-stability.
After UV-irradiation for 120 hours (total radiation dosage: 200 watt), the content of impurities was measured with high performance liquid chromatography (HPLC).

[2] = Temperature & humidity stability, impurities by HPLC; details: for Content of impurities, 60° C., 75%: stored at 60° C. 75% for 2 weeks; for Content of impurities, 60° C., 93%: stored at 60° C. 93% for 2 weeks; for Content of impurities, 70° C., 75%: stored at 70° C. 75% for 2 weeks
Method: Temperature & Humidity Stability
Sibutramine free base, sibutramine hydrochloride monohydrate and sibutramine inclusion complex (Examples 1 and 2) were compared in terms of temperature and humidity stability.
Specifically, each compound was stored under the condition selected from the group consisting of 60° C. 75%, 60° C. 93% and 70° C. 75% for 2 weeks. The content impurities was measured with high performance liquid chromatography (HPLC).

[3] = Solution stability (pH 5.2) at high temperature, impurities by HPLC; details: solution 1 mg/mL; for Total impurities, 4th day: 4 days; for Total impurities, 7th day: 7 days; for Total impurities, 14th day: 14 days
Method: Solution Stability (pH 5.2)
Sibutramine free base, sibutramine hydrochloride monohydrate and sibutramine inclusion complex (Examples 1 and 2) were compared in terms of solution stability at high temperature.
Specifically, each compound was dissolved into the concentration of 1 mg/mL and pH 5.2, and the solution was moved to a 20 mL vial. Solution stability test was conducted at 60° C. and 70° C., respectively, by measuring the content of impurities with high performance liquid chromatography (HPLC) after the storage for 4, 7 and 14 days.

Row | SMILES | Content of impurities, UV [1] | Content of impurities, Initial [1] | Temperature and humidity stability, in words ([2]; comparison of Table 3) | Content of impurities, Initial [2] | Content of impurities, 60° C., 75% [2] | Content of impurities, 60° C., 93% [2] | Content of impurities, 70° C., 75% [2] | Total impurities, 4th day ([3]; pH 5.2, 60 C.) [%] | Total impurities, 7th day ([3]; pH 5.2, 60 C.) [%] | Total impurities, 14th day ([3]; pH 5.2, 60 C.) [%] | Total impurities, Initial ([3]; pH 5.2, 60 C.) [%] | Total impurities, 4th day ([3]; pH 5.2, 70 C.) [%] | Total impurities, 7th day ([3]; pH 5.2, 70 C.) [%] | Total impurities, 14th day ([3]; pH 5.2, 70 C.) [%] | Total impurities, Initial ([3]; pH 5.2, 70 C.) [%]
1 | CC(C)CC(N(C)C)C1(c2ccc(Cl)cc2)CCC1 (centres unmarked) [Sibutramine free base, N,N-dimethyl-1-[1-(4-chlorophenyl)-cyclobutyl]-3-methylbutylamine] | 0.33 | 0.00 | most unstable | 0.00 | 5.65 | 6.09 | 8.27 | 7.59 | 13.77 | 17.16 | 0.00 | 10.04 | 17.05 | 20.52 | 0.00
2 | CC(C)CC(N(C)C)C1(c2ccc(Cl)cc2)CCC1.Cl (centres unmarked) [Sibutramine hydrochloride monohydrate] | 0.11 | 0.06 | – | 0.00 | 0.06 | 0.07 | 0.13 | 0.02 | 0.02 | 0.09 | 0.00 | 1.56 | 2.09 | 4.49 | 0.00
